Results published in the NIST ThermoML archive (doi:10.1016/j.tca.2016.04.001).

Experiments:
[1] = xn = mol fraction of the nth substance listed; conditions: 87 kPa, Liquid, Vibrating tube method
[2] = 87 kPa, Liquid, Vibrating tube method

OC(CCl)CCl [1,3-dichloro-2-propanol] + CC(=O)OC(C)(C)C
mass density [kg/m3], [1]
Conditions	293.15 K	298.15 K	303.15 K	308.15 K	313.15 K
x1 = 0.0496	885.18	879.67	874.08	868.47	862.83
x1 = 0.0948	902.23	896.7	891.14	885.54	879.9
x1 = 0.2007	943.76	938.26	932.7	927.12	921.51
x1 = 0.3003	985.2	979.7	974.18	968.6	963
x1 = 0.4001	1029.14	1023.63	1018.09	1012.51	1006.91
x1 = 0.4991	1075.36	1069.84	1064.27	1058.68	1053.06
x1 = 0.6003	1125.61	1120.05	1114.46	1108.83	1103.17
x1 = 0.7009	1179.16	1173.55	1167.9	1162.21	1156.49
x1 = 0.8013	1236.36	1230.68	1224.95	1219.17	1213.37
x1 = 0.9032	1298.89	1293.07	1287.22	1281.34	1275.42
x1 = 0.9507	1329.66	1323.78	1317.85	1311.9	1305.91
x1 = 1	1362.66	1356.74	1350.72	1344.71	1338.65

OC(CCl)CCl [1,3-dichloro-2-propanol] + C=COC(C)=O
mass density [kg/m3], [1]
Conditions	293.15 K	298.15 K	303.15 K	308.15 K	313.15 K
x1 = 0.0481	954.28	947.93	941.53	935.07	928.57
x1 = 0.1022	978.78	972.47	966.08	959.68	953.24
x1 = 0.2021	1023.42	1017.18	1010.91	1004.52	998.25
x1 = 0.2995	1066.61	1060.46	1054.25	1048	1041.72
x1 = 0.3953	1108.66	1102.54	1096.39	1090.21	1083.96
x1 = 0.5002	1154.23	1148.18	1142.09	1135.96	1129.81
x1 = 0.6003	1197.18	1191.17	1185.12	1179.04	1172.93
x1 = 0.6999	1239.3	1233.34	1227.29	1221.25	1215.17
x1 = 0.8007	1281.45	1275.5	1269.5	1263.47	1257.41
x1 = 0.9014	1322.94	1317	1311	1304.98	1298.92
x1 = 0.9524	1343.43	1337.48	1331.49	1325.46	1319.4
x1 = 1	1362.66	1356.74	1350.72	1344.71	1338.65

C=COC(C)=O [vinyl acetate] + OC(CCl)CCl
[1], x2 = 0
Conditions	mass density [kg/m3]
293.15 K	932.41
298.15 K	926.01
303.15 K	919.56
308.15 K	913.07
313.15 K	906.52

OCc1ccccc1 [benzenemethanol] + CC(=O)OC(C)(C)C
[1], x1 = 1
Conditions	mass density [kg/m3]
293.15 K	1045.21
298.15 K	1041.38
303.15 K	1037.5
308.15 K	1033.63
313.15 K	1029.71

OCc1ccccc1 [benzenemethanol] + CCOC(C)=O
mass density [kg/m3], [1]
Conditions	293.15 K	298.15 K	303.15 K	308.15 K	313.15 K
x1 = 0.0452	909.04	903.11	897.12	891.1	885.03
x1 = 0.1047	919.57	913.81	908.02	902.18	896.3
x1 = 0.2008	935.91	930.43	924.91	919.36	913.77
x1 = 0.3043	952.73	947.53	942.29	937.02	931.72
x1 = 0.4	967.5	962.53	957.53	952.49	947.43
x1 = 0.5017	982.41	977.66	972.89	968.08	963.26
x1 = 0.6006	996.27	991.73	987.15	982.56	977.95
x1 = 0.7013	1009.5	1005.14	1000.77	996.37	991.97
x1 = 0.8074	1023	1018.86	1014.67	1010.47	1006.26
x1 = 0.9042	1034.66	1030.64	1026.67	1022.63	1018.59
x1 = 0.9537	1040.08	1036.17	1032.23	1028.28	1024.32
x1 = 1	1045.21	1041.38	1037.5	1033.63	1029.71

CC(=O)OC(C)(C)C [1,1-dimethylethyl ethanoate] + OC(CCl)CCl
[1], x2 = 0
Conditions	mass density [kg/m3]
293.15 K	866.95
298.15 K	861.41
303.15 K	855.79
308.15 K	850.17
313.15 K	844.49

OC(CCl)CCl [1,3-dichloro-2-propanol] + CCOC(C)=O
mass density [kg/m3], [1]
Conditions	293.15 K	298.15 K	303.15 K	308.15 K	313.15 K
x1 = 0.0442	921.07	915.01	909.02	902.88	896.68
x1 = 0.0967	945.13	939.12	933.16	927.05	921.2
x1 = 0.1971	991	985	979.1	972.97	967.2
x1 = 0.3019	1039.05	1033.15	1027.3	1021.22	1015.41
x1 = 0.3939	1081.4	1075.55	1069.64	1063.7	1057.83
x1 = 0.4995	1130.18	1124.35	1118.48	1112.58	1106.65
x1 = 0.6006	1176.92	1171.1	1165.25	1159.37	1153.45
x1 = 0.6993	1222.62	1216.83	1210.95	1205.06	1199.14
x1 = 0.8006	1269.78	1263.96	1258.07	1252.15	1246.2
x1 = 0.9011	1316.79	1310.89	1304.97	1299	1293.1
x1 = 0.953	1340.9	1334.99	1329.01	1323.02	1316.98
x1 = 1	1362.66	1356.74	1350.72	1344.71	1338.65

OC(CCl)CCl [1,3-dichloro-2-propanol]
[2]
Conditions	mass density [kg/m3]
293.15 K	1362.66
298.15 K	1356.74
303.15 K	1350.72
308.15 K	1344.71
313.15 K	1338.65

CCOC(C)=O [ethyl acetate] + OC(CCl)CCl
[1], x2 = 0
Conditions	mass density [kg/m3]
293.15 K	900.71
298.15 K	894.65
303.15 K	888.52
308.15 K	882.35
313.15 K	876.12

CCOC(C)=O [ethyl acetate] + OCc1ccccc1
[1], x2 = 0
Conditions	mass density [kg/m3]
293.15 K	900.71
298.15 K	894.65
303.15 K	888.52
308.15 K	882.35
313.15 K	876.12

OCc1ccccc1 [benzenemethanol]
[2]
Conditions	mass density [kg/m3]
293.15 K	1045.21
298.15 K	1041.38
303.15 K	1037.5
308.15 K	1033.63
313.15 K	1029.71

OCc1ccccc1 [benzenemethanol] + C=COC(C)=O
[1], x1 = 1
Conditions	mass density [kg/m3]
293.15 K	1045.21
298.15 K	1041.38
303.15 K	1037.5
308.15 K	1033.63
313.15 K	1029.71

C=COC(C)=O [vinyl acetate] + OCc1ccccc1
mass density [kg/m3], [1]
Conditions	293.15 K	298.15 K	303.15 K	308.15 K	313.15 K
x2 = 0	932.41	926.01	919.56	913.07	906.52
x2 = 0.0504	940.17	934.2	928.1	922	915.06
x2 = 0.0954	947.04	941.4	935.7	930	922.62
x2 = 0.1987	961.08	955.4	949.66	943.89	938.08
x2 = 0.2999	974.18	968.88	963.51	958.06	952.57
x2 = 0.3947	985.63	980.52	975.38	970.21	965
x2 = 0.5005	997.61	992.77	987.91	983.01	978.09
x2 = 0.5991	1008.19	1003.62	998.97	994.32	989.64
x2 = 0.7047	1019.12	1014.77	1010.36	1005.95	1001.51
x2 = 0.8037	1028.4	1024.23	1020.02	1015.85	1011.55
x2 = 0.9067	1037.37	1033.39	1029.37	1025.33	1021.27

CC(=O)OC(C)(C)C [1,1-dimethylethyl ethanoate] + OCc1ccccc1
mass density [kg/m3], [1]
Conditions	293.15 K	298.15 K	303.15 K	308.15 K	313.15 K
x2 = 0	866.95	861.41	855.79	850.17	844.49
x2 = 0.047	874.64	869.18	863.68	858.15	852.61
x2 = 0.0925	882.2	876.83	871.43	865.99	860.52
x2 = 0.2017	900.32	895.16	889.77	884.75	879.5
x2 = 0.3001	916.98	912	906.99	901.96	896.9
x2 = 0.4	934.1	929.3	924.47	919.62	914.74
x2 = 0.4999	951.7	947.08	942.4	937.73	933.04
x2 = 0.6002	969.63	965.17	960.68	956.18	951.66
x2 = 0.7027	988.3	984.07	979.75	975.42	971.06
x2 = 0.7996	1006.55	1002.4	998.24	994.06	989.87
x2 = 0.9059	1026.81	1022.83	1018.83	1014.82	1010.79
x2 = 0.9528	1035.96	1032.06	1028.11	1024.17	1020.21
